Source: patent publication US4634766A, “1,4-diaza-phenothiazines” (Merck Frosst Canada, Inc., priority 1984, dated 1987)
Converted amounts (≈) assume the structure as drawn.

Columns and labels:
[1] = tested on: LTB4 formation in rat polymorphonuclear leukocytes; assay: Rat Polymorphonuclear Leukocyte (P.M.N.) Assay: inhibition of LTB4 formation; type: cell-based; conditions: A-23187 stimulated rat PMN, LTB4 bioassay, read-out: PMN I50
Method: Rats under ether anesthesia were injected (i.p.) with 8 ml of a suspension of sodium caseinate (6 grams in ca. 50 ml water). After 15-24 hours the rats were sacrificed (CO2) and the cells from the peritoneal cavity were recovered by lavage with 20 ml of buffer (Eagles MEM containing 30 mM HEPES adjusted to pH 7.4 with NaOH). The cells were pelleted (350×g,5 min.), resuspended in buffer with vigorous shaking, filtered through lens paper, recentrifuged and finally suspended in buffer at a concentration of […]. A 500 μl aliquot of PMN suspension and test compound were preincubated for 2 minutes at 37° C., followed by the addition of 10 μM A-23187. The suspension was stirred for an additional 4 minutes then bioassayed for LTB4 content by adding an aliquot to a second 500 μl portion of the PMN at 37° C. The LTB4 produced in the first incubation caused aggregation of the second PMN, which was measured as a change in light transmission. The size of the assay aliquot was chosen to give a submaximal transmission change (usually -70%) for the untreated control. The percentage inhibition of LTB4 formation was calculated from the ratio of transmission change in the sample to the transmission change in the compound-free control.

guinea pig trachea = assay: Antigen Challenge in vitro Assay: contraction of sensitized tracheal chains by egg albumin; type: cell-based; conditions: Cavia porcellus; for inhibition at 3 µg/mL: 3 μg/ml
Method: Male guinea pigs weighing 300-350 g were sensitized by injecting (I.P.) 0.5 ml of a suspension containing 0.4 mg of egg albumin (Ovalbumin, Grade V, Sigma Chemical Co.) and 4.0 g aluminum hydroxide in 19.6 ml of saline. Two weeks were permitted for sensitization to occur.
Three sensitized guinea pigs were stunned and exsanguinated. The tracheas were removed, freed of adhering tissue and divided longitudinally by cutting through the cartilaginous tissue directly opposite the muscle insertion. Each opened trachea was then transected between every second cartilage. Four of the cut sections were tied together, end to end, in a series with No. 7 silk thread ensuring that the tracheal muscles were all in the same vertical plane. Thus, each chain consisted of tissue from three different animals.
The chain so formed was then suspended under 1 g of tension (by silk ties at each end) in a 20 ml organ bath containing 10 ml of modified^1 Krebs-Henseleit buffer solution gassed with 95% O2 and 5% CO2 at 37° C. Mepyramine (0.55 μg/ml) and indomethacin (2.67 μg/ml) were added to the buffer to avoid the contribution of histamine receptors and cyclooxygenase products to the contraction. To record responses one end of the tracheal chain was attached to a Gould-Statham UC-2 force displacement transducer which was connected to a Beckman Type R-dynograph.The preparations were allowed to equilibrate for one hour during which time the tissues were automatically washed (10 ml volume displacement) every 6 minutes.
After the equilibration period the tissues were primed with methacholine (3 μg/ml; 1.5×10^-5 M), washed and allowed to recover to baseline. The tissues were treated again with a second dose of methacholine, washed, allowed to return to baseline and washed for an additional hour.
Two chains were used as a control. These were incubated in a concentration of egg albumin sufficient to induce an average contraction of 50-80% of the methacholine response.
Each compound to be tested was added to two other baths (at a final concentration in each bath of 10 μg/ml) 15 minutes prior to challenging the fresh chains with egg albumin.
The response of the challenged tissue was expressed as a percentage of the methacholine maximum. The percentage inhibition for each compound was then calculated. Compounds which at 10 μg/ml (final conc.) inhibited the egg albumin response by 50% or more were retested at a lower concentration.

asthmatic rats = assay: Asthmatic Rat Assay: duration of dyspnoea after egg albumin aerosol challenge; type: in vivo; conditions: p.o.
Description: Rats were obtained from an inbred line of asthmatic rats. Both female and male rats from 200 to 300 g were used.
Egg albumin (EA), grade V, crystallized and lyophilized, was obtained from Sigma Chemical Co., St. Louis. Bordetella pertussis vaccine, containing 30×10^9 killed bacteria per ml was obtained from the Institut Armand-Frappier, Laval des Rapides, Quebec. Aluminum hydroxide was obtained from the Regis Chemical Company, Chicago.
The challenge and subsequent respiratory recordings were carried out in a clear plastic box with internal dimensions 10×6×4 inches. The top of the box was removable; in use, it was held firmly in place by four clamps and an airtight seal was maintained by a soft rubber gasket. […] A Fleisch No. 0000 pneumotachograph was inserted into one end of the box and coupled to a Grass volumetric pressure transducer (PT5-A) which was then connected to a Beckman Type R Dynograph through appropriate couplers. While aerosolizing the antigen, the outlets were open and the pneumotachograph was isolated from the chamber. The outlets were closed and the pneumotachograph and the chamber were connected during the recording or the respiratory patterns. For challenge, 2 ml of a 3% solution of antigen in saline was placed into each nebulizer and the aerosol was generated with air from a small Potter diaphragm pump operating at 10 psi and a flow of 8 liters/minute.
Rats were sensitized by injecting (s.c.) 1 ml of a suspension containing 1 mg EA and 200 mg aluminum hydroxide in saline. Simultaneously, they received an intraperitoneal (i.p.) injection of 0.5 ml of B. pertussis vaccine. They were used between days 14 and 18 postsensitization. In order to eliminate the serotonin component of the response, rats were pretreated intravenously 5 minutes prior to aerosol challenge with […] methylserzide. Rats were then exposed to an aerosol of 3% EA in saline for exactly 1 minute, then their respiratory profiles were recorded for a further 25-30 minutes. The duration of continuous dyspnoea was measured from the respiratory recordings.
Compounds were generally administered either intraperitoneally 1 hour prior to challenge or orally 11/2 hours prior to challenge. They were either dissolved in dimethylsulfoxide or suspended in 0.1% methocel and 0.5% Tween 80. The volume injected was 2 ml/kg (intraperitoneally) or 10 ml/kg (orally (p.o.)). Prior to oral treatment rats were starved overnight. Their activity was determined in terms of their ability to decrease the duration of symptoms of dyspnoea in comparison with a group of vehicle-treated controls. Usually, a compound was evaluated at a series of doses and an ED50 was determined. This was defined as the dose (mg/kg) which would inhibit the duration of symptoms by 50%.

[2] = tested on: PAF-induced hyperalgesia in the rat paw; assay: PAF-Induced Hyperalgesia Assay; type: in vivo, rat (Sprague-Dawley); conditions: 10 mg/kg, i.p.

IC50 [1] | Structure (SMILES) | inhibition at 3 µg/mL (guinea pig trachea) | also measured
0.5 to 1 µg/mL (≈ 2.7 to 5.4 µM) | c1ccc2c(c1)Nc1nccnc1O2 | 35% | –
1 µg/mL (≈ 3.76 µM) | COc1cc2c(cc1Cl)Nc1nccnc1S2 | – | –
– | CN1c2cc(Cl)c(O)cc2Sc2nccnc21 [drawing 28] | – | Asthmatic Rat % Inhibition (asthmatic rats; 5 mg/kg): 47%
– | COc1ccc2c(c1)[S+]([O-])c1nccnc1N2C (centres unmarked) | – | Asthmatic Rat % Inhibition (asthmatic rats; 3 mg/kg): 25%
– | CN1c2ccc(O)cc2Sc2nccnc21 [drawing 30] | – | Asthmatic Rat % Inhibition (asthmatic rats; 3 mg/kg): 39%
5 µg/mL (≈ 24.8 µM) | c1ccc2c(c1)Nc1nccnc1S2 [drawing 17] | – | inhibition at 10 µg/mL (guinea pig trachea; 10 μg/ml): 85%
– | COc1ccc2c(c1)Sc1nccnc1N2C | – | Asthmatic Rat % Inhibition (asthmatic rats; 3 mg/kg): 43%
0.05 to 0.5 µg/mL (≈ 0.216 to 2.16 µM) | COc1ccc2c(c1)Sc1nccnc1N2 | 42% | –
– | CC(=O)N1c2ccccc2Sc2nccnc21 | 14% | –
1 to 5 µg/mL (≈ 4.32 to 21.6 µM) | CN1c2ccc(O)cc2Sc2nccnc21 [drawing 21] | 71% | –
– | CCOC(=O)CN1c2ccccc2Sc2nccnc21 | 22% | –
0.2 µg/mL (≈ 0.753 µM) | CN1c2cc(Cl)c(O)cc2Sc2nccnc21 [drawing 18] | – | –
– | c1ccc2c(c1)Nc1nccnc1S2 [drawing 27] | – | Asthmatic Rat % Inhibition (asthmatic rats; 5 mg/kg): 30%; PAF % Inhibition [2]: 70%
1 to 5 µg/mL (≈ 4.65 to 23.2 µM) | CN1c2ccccc2Sc2nccnc21 | – | –
5 µg/mL (≈ 17.9 µM) | COc1cc2c(cc1Cl)N(C)c1nccnc1S2 | – | –
